Results: ChEMBL document CHEMBL3596135, “A critical evaluation of pyrrolo[2,3-d]pyrimidine-4-amines as Plasmodium falciparum apical membrane antigen 1 (AMA1) inhibitors” (Medchemcomm, 2014)
pIC50, pKd: −log10 of the molar value. Structures can show the parent of a compound that is named as a salt. Active and inactive are the calls of the source. The rule behind the calls is not given here.

Key:
[1] = Self-aggregating activity of the compound in phosphate buffer at pH 7.4 at 5 to 80 uM by 1D 1H-NMR spectroscopic analysis in absence of Tween 20; type: physicochemical; conditions: pH 7.4, 80 µM
[2] = Self-aggregating activity of the compound in phosphate buffer at pH 7.4 at 80 uM by 1D 1H-NMR spectroscopic analysis in presence of Tween 20; type: physicochemical; conditions: pH 7.4, 80 µM
[3] = Solubility of the compound in phosphate buffer at pH 7.4; type: physicochemical
Plasmodium falciparum [4] = assay: Antimalarial activity against synchronised early trophozoite stage of Plasmodium falciparum 3D7 assessed as parasite growth inhibition measured after two invasion cycles by flow cytometric analysis; type: functional, organism-based
[5] = target: T1, Apical membrane antigen 1 (Plasmodium falciparum (isolate 3D7), UniProt Q7KQK5); assay: Binding affinity to Plasmodium falciparum 3D7 AMA1 (104 to 442) by SPR analysis
T1 sequence (Q7KQK5 whole entry): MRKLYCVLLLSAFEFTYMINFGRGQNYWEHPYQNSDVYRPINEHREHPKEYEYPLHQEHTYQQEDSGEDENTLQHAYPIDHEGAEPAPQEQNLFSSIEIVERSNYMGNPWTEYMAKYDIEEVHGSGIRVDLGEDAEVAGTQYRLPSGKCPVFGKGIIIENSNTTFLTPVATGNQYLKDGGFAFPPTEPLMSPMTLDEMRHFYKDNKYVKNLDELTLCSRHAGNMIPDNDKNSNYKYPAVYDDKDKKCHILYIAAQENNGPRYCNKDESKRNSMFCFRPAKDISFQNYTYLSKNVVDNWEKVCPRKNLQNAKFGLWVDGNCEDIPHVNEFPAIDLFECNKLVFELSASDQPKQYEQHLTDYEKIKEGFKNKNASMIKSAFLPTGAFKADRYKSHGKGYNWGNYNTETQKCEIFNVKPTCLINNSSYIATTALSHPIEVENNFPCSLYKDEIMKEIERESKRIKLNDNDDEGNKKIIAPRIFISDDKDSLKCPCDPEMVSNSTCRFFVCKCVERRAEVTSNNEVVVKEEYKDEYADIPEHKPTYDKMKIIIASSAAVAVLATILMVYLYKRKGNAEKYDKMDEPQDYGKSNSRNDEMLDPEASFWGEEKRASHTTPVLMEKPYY

[6] = target: T2, Apical membrane antigen 1 (Plasmodium falciparum (isolate 3D7)) (UniProt Q7KQK5); assay: Binding affinity to Plasmodium falciparum 3D7 AMA1 (104 to 442) up to 200 uM by SPR analysis
T2 sequence (whole entry): T1 sequence (Q7KQK5 whole entry)

[7] = target: T1, Apical membrane antigen 1; assay: Binding affinity to recombinant His-tagged Plasmodium falciparum 3D7 AMA1 assessed as inhibition of interaction with biotin-tagged RON2 peptide after 30 mins by AlphaScreen assay
Plasmodium falciparum [8] = assay: Antimalarial activity against Plasmodium falciparum FVO schizont infected in RBC assessed as inhibition of merozoite invasion after 3 to 4 hrs by flow cytometric analysis; type: functional, organism-based
[9] = target: T2, Apical membrane antigen 1 (Plasmodium falciparum (isolate 3D7)); assay: Competitive binding affinity to Plasmodium falciparum 3D7 AMA1 (104 to 442) at 80 uM after 200 milisecs by CPMG binding assay in presence of R1 peptide and absence of detergent
[10] = target: T2, Apical membrane antigen 1 (Plasmodium falciparum (isolate 3D7)); assay: Competitive binding affinity to Plasmodium falciparum 3D7 AMA1 (104 to 442) at 80 uM after 200 milisecs by CPMG binding assay in presence of RON2 peptide and absence of detergent
[11] = target: T2, Apical membrane antigen 1 (Plasmodium falciparum (isolate 3D7)); assay: Competitive binding affinity to Plasmodium falciparum 3D7 AMA1 (104 to 442) at 80 uM after 200 milisecs by CPMG binding assay in presence of R1 peptide and Tween 20
[12] = target: T2, Apical membrane antigen 1 (Plasmodium falciparum (isolate 3D7)); assay: Competitive binding affinity to Plasmodium falciparum 3D7 AMA1 (104 to 442) at 80 uM after 200 milisecs by CPMG binding assay in presence of RON2 peptide and Tween 20

SMILES | Activity [1] | Activity [2] | solubility [3] | growth inhibition (GI) (Plasmodium falciparum [4]) | pKd [5] | further results
Cn1cc(-c2ccccc2)c2c(N)ncnc21 | Not Active | Not Active | soluble | Active | ≤ 3.00 | –
Clc1ncnc2c1c(Br)cn2C1CCCC1 | – | – | – | – | – | Activity [6]: inactive
Clc1cccc(C(c2ccc3[nH]cnc3c2)n2ccnc2)c1 (stereo unspecified) [LIAROZOLE HYDROCHLORIDE] | – | – | – | – | – | pIC50 [7]: 4.54
Cn1cc(-c2ccc(N)cc2)c2c(N)ncnc21 | Not Active | Not Active | soluble | Active | ≤ 3.00 | –
CN(C)c1ncnc2c1c(-c1ccc(Oc3ccccc3)cc1)cn2C1CCCC1 | Active | Not Active | soluble | – | ≤ 3.00 | pIC50 (Plasmodium falciparum [8]): 5.22; pIC50 (Plasmodium falciparum [4]): < 3.00
Cn1cc(-c2cccc(F)c2)c2c(N)ncnc21 | Not Active | Not Active | soluble | – | ≤ 3.00 | pIC50 (Plasmodium falciparum [4]): > 4.51
COc1ccc(-c2cn(C)c3ncnc(N)c23)cc1 | Not Active | Not Active | soluble | Active | ≤ 3.00 | –
COc1cccc(-c2cn(C)c3ncnc(N)c23)c1 | Not Active | Not Active | soluble | Active | ≤ 3.00 | –
Nc1ncnc2c1c(-c1ccc(Oc3ccccc3)cc1)cn2C1CCCC1 | Active | Not Active | soluble | – | ≤ 3.00 | pIC50 (Plasmodium falciparum [8]): 4.52; pIC50 (Plasmodium falciparum [4]): < 3.00
Cn1cc(-c2cccc(N)c2)c2c(N)ncnc21 | Not Active | Not Active | soluble | Active | ≤ 3.00 | –
COc1ccc(-c2cn(C3CCCC3)c3ncnc(N)c23)cc1 | Not Active | Not Active | soluble | – | ≤ 3.00 | pIC50 (Plasmodium falciparum [8]): 5.01; Activity [9]: Active; Activity [10]: Active; Activity [11]: Active; Activity [12]: Active; pIC50 (Plasmodium falciparum [4]): 4.20
CN(C)CCCN1c2ccccc2C(C)(C)c2ccccc21 [DIMETACRINE] | – | – | – | – | – | pIC50 [7]: 4.55
CCn1cc(-c2ccc(OC)cc2)c2c(N)ncnc21 | Not Active | Not Active | soluble | Active | ≤ 3.00 | –
Clc1[nH]cnc2nccc1-2 | – | – | – | – | – | Activity [6]: inactive
COc1ccccc1-c1cn(C)c2ncnc(N)c12 | Not Active | Not Active | soluble | Active | ≤ 3.00 | –
Cn1cc(-c2ccc(F)cc2)c2c(N)ncnc21 | Not Active | Not Active | soluble | Active | ≤ 3.00 | –
Cn1cc(-c2ccncc2)c2c(N)ncnc21 | Not Active | Not Active | soluble | Active | ≤ 3.00 | –
Cn1cc(-c2ccccc2F)c2c(N)ncnc21 | Not Active | Not Active | soluble | Active | ≤ 3.00 | –
